The text below walks through data of EP1161424B1, “NEW DIAZOLE DERIVATIVES AS SEROTONERGIC AGENTS” (Wyeth, priority 1999, dated 2000).

Molecules are shown by their SMILES.

Assay [1] concerns the target T1, human 5HT1A receptor (Homo sapiens, UniProt P08908).
T1 construct: expressed in transfected cells; host or cells: CHO cells, stably transfected
T1 sequence (P08908 1-422): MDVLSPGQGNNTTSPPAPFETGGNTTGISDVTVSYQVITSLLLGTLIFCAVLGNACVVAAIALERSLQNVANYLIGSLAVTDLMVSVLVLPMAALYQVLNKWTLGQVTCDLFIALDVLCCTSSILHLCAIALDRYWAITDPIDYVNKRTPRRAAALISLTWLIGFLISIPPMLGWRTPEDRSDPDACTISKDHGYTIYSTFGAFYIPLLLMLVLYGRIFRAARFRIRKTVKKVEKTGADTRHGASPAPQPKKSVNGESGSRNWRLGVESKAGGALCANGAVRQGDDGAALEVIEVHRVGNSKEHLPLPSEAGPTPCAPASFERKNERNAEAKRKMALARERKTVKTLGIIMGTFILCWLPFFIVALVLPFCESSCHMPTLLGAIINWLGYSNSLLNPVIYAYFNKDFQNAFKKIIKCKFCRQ
Briefly: 5-HT1A receptor binding assay ([3H] 8-OH-DPAT displacement). As to conditions: displacement of [3H] 8-OH-DPAT (1.5 nM) in CHO cells stably transfected with the human 5HT1A receptor. The procedure: 5-HT1A Receptor Binding Assay
High affinity for the serotonin 5-HT1A receptor was established by testing the claimed compound's ability to displace [^3H] 8-OH-DPAT binding in CHO cells stably transfected with the human 5HT1A receptor. Stably transfected CHO cells are grown in DMEM containing 10% heat inactivated FBS and non-essential amino acids. Cells are scraped off the plate, transferred to centrifuge tubes, and washed twice by centrifugation (2000 rpm for 10 min., 4°C) in buffer (50 mM Tris pH 7.5). The resulting pellets are aliquoted and placed at -80°C. On the day of assay, the cells are thawed on ice and resuspended in buffer. The binding assay is performed in a 96 well microtiter plate in a total volume of […]. Non-specific binding is determined in the presence of […] 5-HT, final ligand concentration is 1.5 nM. Following a 30 minute incubation at room temperature, the reaction is terminated by the addition of ice cold buffer and rapid filtration through a GF/B filter presoaked for 30 minutes in 0.5% PEI. Compounds are initially tested in a single point assay to determine percent inhibition at […], and Ki values are determined for the active compounds.
On the technique in general: In a radioligand displacement assay an active substance lowers the binding of a labelled ligand.

Assay [2] concerns the target T1, human 5HT1A receptor. The assay is described as follows: 5-HT1A receptor intrinsic activity assay (cAMP, RIA). The format is cell-based. The note with it: for cAMP Emax: agonist activity: reversal of forskolin-stimulated cAMP in CHO cells with human 5-HT1A receptor, % printed only; for IC50: antagonist, reversal of agonist induced activity, compounds with Emax = 0 %, preincubated 20 minutes before agonist and forskolin. The procedure:
5-HT1A Receptor Intrinsic Activity Assay
The intrinsic activity of compounds of the present invention was established by testing the claimed compounds ability to reverse the stimulation of cyclic adenosinemonophosphate (cAMP) in CHO cells stably transfected with the human 5-HT1A receptor. Stably transfected CHO cells were grown in DMEM containing 10% heat inactivated FBS and non-essential amino acids. The cells are plated at a density of […] per well in a 24 well plate and incubated for 2 days in a CO2 incubator. On the second day, the media is replaced with 0.5 mL treatment buffer (DMEM + 25 mM HEPES, 5 mM theophylline, […] pargyline) and incubated for 10 minutes at 37°C. Wells are treated with forskolin ([…]) followed immediately by the test compound ([…] for initial screen) and incubated for an additional 10 minutes at 37°C. The reaction is terminated by removal of the media and addition of 0.5 mL ice cold assay buffer (supplied in the RIA kit). Plates are stored at -20°C prior to assessment of cAMP formation by RIA. EC50 values are determined for the active test compounds. Compounds shown to have no agonist activities (Emax = 0 %) are further analyzed for their ability to reverse agonist induced activity. In separate experiments, 6 concentrations of antagonist are preincubated for 20 minutes prior to the addition of agonist and forskolin. Cells are harvested as described above. The cAMP kit is supplied by Amersham and the RIA is performed as per kit instructions, and calculations of IC50 performed by GraphPad Prism.

In the case of `COc1nsnc1N1CCN(CC(Cc2ccccc2)N(C)C(=O)c2ccccc2)CC1` (centres unmarked) [Compound 9, N-{1-Benzyl-2-[4-(4-methoxy-[1,2,5]thiadiazol-3-yl)piperazin-1-yl]ethyl]-N-methylbenzamide], the Ki (in general, the dissociation constant of the complex between target and ligand, obtained from inhibition or displacement) on human 5HT1A receptor [1] was determined as 9.87 nM.
`O=C(N[C@@H](Cc1ccccc1)CN1CCN(c2nsnc2Cl)CC1)c1ccncc1` [Compound 5]: the affinity at human 5HT1A receptor [1] corresponds to a Ki of 425 nM.
For the compound `COc1nsnc1N1CCN(C[C@@H](Cc2ccccc2)N(C)C(=O)C2CCCCC2)CC1` [Compound 8, Cyclohexanecarboxylic acid {(1R)-1-benzyl-2-[4-(4-methoxy-[1,2,5]thiadiazol-3-yl)-piperazine-1-yl]ethyl}methyl amide], at human 5HT1A receptor [2], the “cAMP Emax” value turned out to be 0.00% and the IC50 (as a rule, the concentration needed to halve the response being measured) was found to be 72.7 nM. This compound also had a Ki on human 5HT1A receptor [1] of 1.55 nM.
As for `CN(C(=O)C1CCCCC1)[C@H](Cc1ccccc1)CN1CCN(c2nsnc2Cl)CC1` [Compound 7], at human 5HT1A receptor [2], the “cAMP Emax” value came to 0.00% and the IC50 worked out at 49.3 nM. Further, the Ki at human 5HT1A receptor [1] amounted to 4.55 nM.
As to `COc1nsnc1N1CCN(C[C@@H](Cc2cccnc2)NC(=O)C2(C)CCCCC2)CC1` [Compound 11, 1-Methylcyclohexanecarboxylic acid {(1R)-2-[4-(4-methoxy-[1,2,5]thiadiazol-3-yl)-piperazin-1-yl]-1-pyridin-3-ylmethylethyl} amide], at human 5HT1A receptor [2], the “cAMP Emax” value is 0.000% and the IC50 stood at 113 nM. For the same compound, the affinity on human 5HT1A receptor [1] corresponds to a Ki of 3.04 nM.
As for `O=C(N[C@@H](Cc1ccccc1)CN1CCN(c2nsnc2Cl)CC1)C1CCCCC1.O=C(O)/C=C/C(=O)O` [Compound 4, Cyclohexanecarboxylic acid {(1S)-1-benzyl-2-(4-(4-chloro[1,2,5}thiadiazol-3-yl)piperazin-1-yl]ethyl}amide fumarate], the “cAMP Emax” value on human 5HT1A receptor [2] was found to be 93.00%. In addition, the EC50 (in general, the concentration that produces a half-maximal response) at human 5HT1A receptor [2] (agonist, reversal of forskolin-stimulated cAMP in transfected CHO cells) came to 4.61 nM. This compound yielded a Ki at human 5HT1A receptor [1] of 0.84 nM.
